The source of these data is US20210253598A1, “ARYL ANNULATED MACROCYCLIC INDOLE DERIVATIVES” (priority 2017, published 2021).

Where a name gives a salt, the structure may show the parent alone. Read-outs that look alike come from different tables or passages of the source. Bounds are passed on as bounds.

In data set [1] the test system is SUDHL5. Kind of data set: Anti-proliferative effect in SUDHL5 cells, CellTiter-Glo (Assay 7). The format is cell-based. Conditions: SUDHL5, 72 hours incubation, CellTiter-Glo, median, read-out: Antiproli SUDHL5 [M] (median). Here is the method: Assessment of the Anti-Proliferative Effect of Compounds in Different Cell Lines
The impact of compounds on the proliferation of different cell lines was assessed using the CellTiter-Glo® Luminescent Cell Viability reagent from Promega (G7573).
In parallel, cells were plated in a reference (day 0) plate for time zero determination. Cells were incubated in a humidified incubator at 37° C. overnight.
Rim wells were excluded. The cells were incubated for 72 hours in a humidified incubator at 37° C. The day 0 plate was measured by adding 30 μL/well of CTG solution (CellTiter-Glo® Luminescent Cell Viability reagent, Promega G7573) to time zero wells in the reference plate followed by a 10 minutes incubation and luminescence reading at 0.1 ms. using the PHERAstar FS microplate reader (BMG Labtech).
After 72 hours incubation, the treated plates were measured in the same way as the day 0 plate mentioned above. The Bella DRC Master Sheet was used to calculate IC50s, with CI=day 0 values and C0=DMSO control values.

The subject of data set [2] is SUDHL10. Briefly: Induction of cytotoxicity in SUDHL10 cells, CellTiter-Glo (Assay 6). The format is cell-based. The conditions noted are these: SUDHL10, 5 hours incubation, median, read-out: Cytotox SUDHL10 [M] (median). The method, then:
(§1) Induction of Cytotoxicity Upon Treatment of Cells with Selected Compounds
(§2) In principle, compounds that induce apoptosis will concomitantly induce cell cytotoxicity. Therefore, cytotoxicity assays were run in parallel in SUDHL5 and SUDHL10 cells.
(§3) As a control, medium without cells was also added to the plate. Cells were incubated in a humidified incubator at 37° C. overnight. […] Rim wells were excluded. The cells were incubated for 5 hours in a humidified incubator at 37° C. After this incubation, 30 μl of CellTiter-Glo® Luminescent Cell Viability reagent (Promega, G7573) was added to each well using the Multidrop Combi Reagent Dispenser, followed by 15 minutes incubation on a shaker at room temperature. Finally, luminescence was read at 0.1 ms, with a gain of 3000 using the PHERAstar FS microplate reader (BMG Labtech).

Data set [3] has as its system SUDHL5. Briefly: Induction of caspase-3/7 activity in SUDHL5 cells (Assay 4). The format is cell-based. Conditions: SUDHL5, 3 hours treatment, Caspase-Glo 3/7, median, read-out: Caspase SUDHL5 [M] (median). The method, then:
(§4) Induction of Caspase-3/7 Activity Upon Treatment of Cells with Selected Compounds
(§5) The BH3-domain of MCL-1 sequesters pro-apoptotic proteins, thereby inhibiting apoptosis. In contrast, MCL-1 inhibitors are expected to antagonize this effect leading to an increase in apoptosis, which can be determined by measuring the activity of caspase-3/7.
(§6) The activity of caspase-3/7 was determined in DLBCL (Diffuse large B-cell lymphoma) cell lines (SUDHL5 and SUDHL10) upon treatment with different compounds, using the Caspase-Glo® 3/7 reagent from Promega (G8092).
(§7) As a control, medium without cells was also added to the plate. Cells were incubated in a humidified incubator at 37° C. overnight.
(§8) Rim wells were excluded. The cells were incubated for 3 hours in a humidified incubator at 37° C. After this incubation, 30 μl of Caspase-Glo® 3/7 reagent (Promega G8092) was added to each well using the Multidrop Combi Reagent Dispenser, followed by 1 hour incubation at 37° C. Finally, luminescence was read at 0.1 ms, with a gain of 3000 using the PHERAstar FS microplate reader (BMG Labtech).
(§9) For the evaluation of the results, the background measured with “medium-only” was subtracted from all other values. Then, the values were normalized to DMSO-only treated cells (every value was divided by the mean of the DMSO control).

For data set [4], the target named is MCL-1 (Homo sapiens, UniProt Q07820, K194A/K197A/R201A). Kind of data set: Protein-protein interaction assay MCL-1/Noxa BH3 peptide, TR-FRET (MCL-1 assay, Assay 1). The format is binding. Conditions: MCL-1 Assay [M] (median), MBP-MCL-1 / Noxa BH3 peptide. The method, then:
The dose-dependent inhibition by the compounds described in this invention of the interaction between MCL-1 and the BH3 domain of Noxa (both human) was determined using a steady state binding competition assay with time-resolved fluorescence energy transfer (TR-FRET) readout. For that purpose MCL-1 (amino acids 173-321, N-terminal fused to Maltose Binding Protein (MBP), SEQ ID 1) and a synthetic Noxa BH3-derived peptide of sequence Biotin-PEG2-PEG2-PAELEVE-Nva-[…]-amide (SEQ ID 2) served as protein receptor and tracer ligand respectively. The MBP-MCL-1 was purchased from Beryllium (Bedford, Mass., USA). The expression and purification of this protein construct has been described elsewhere (DOI:10.1371/journal.pone.0125010). The Noxa BH3-derived peptide can be obtained from e.g. Biosyntan (Berlin, Germany).
For that, 100-fold concentrated DMSO solutions were prepared by serial dilutions (1:3.4) of a 2 mM stock solution in a clear, 384-well microtiter plate (Greiner Bio-One, Frickenhausen, Germany). From there, 50 nl were transferred in a dark test plate (Greiner Bio-One, Frickenhausen, Germany). The assay was initiated by addition of 2 μl of a 2,5-fold concentrated MBP-MCL-1 solution (usually for a 1 nM end concentration in 5 μl reaction volume) in aqueous assay buffer [50 mM Tris/HCl pH 7, 100 mM sodium chloride (NaCl), 50 mM potassium fluoride (KF), 0.005% Tween-20, 2 mM DTT, 0.1% bovine gamma globulin (BGG)] to the compounds in the assay plate. This was followed by a 10-minute incubation step at 22° C. for pre-equilibration of the putative complex between MBP-MCL-1 and the compounds.
The mixture was incubated in the dark for one hour at 22° C. and then overnight at 4° C. The formation of MCL-1/Noxa complexes was determined by measuring the resonance energy transfer of the anti-MBP-Eu-cryptate antibody to the streptavidin-XL665 present in the reaction.
The resulting data (ratio) were normalized, taking 0% inhibition as the mean value of control measurements (usually 32 data points) where all reagents were included. In this case 50 nl DMSO were used instead of compounds. […] IC50 values were determined by regression analysis based on a 4 parameter equation (minimum, maximum, IC50, Hill; Y=Max+(Min−Max)/(1+(X/IC50)^Hill) using the Screener Software (Genedata).

For data set [5], the system named is SUDHL10. Briefly: Induction of caspase-3/7 activity in SUDHL10 cells (Assay 4). The format is cell-based. Conditions: SUDHL10, 3 hours treatment, Caspase-Glo 3/7, median, read-out: Caspase SUDHL10 [M] (median). The method, then: as §4, §5, §6, §7, §8, §9
In data set [6] the test system is SUDHL5. Kind of data set: Induction of cytotoxicity in SUDHL5 cells, CellTiter-Glo (Assay 6). The format is cell-based. Conditions: SUDHL5, 5 hours incubation, median, read-out: Cytotox SUDHL5 [M] (median). Here is the method:
as §1, §2, §3
(In ATP-based viability assays light output follows the ATP content of the culture.)

MCL-1, sequence (Q07820 173-321 K194A/K197A/R201A, looked up): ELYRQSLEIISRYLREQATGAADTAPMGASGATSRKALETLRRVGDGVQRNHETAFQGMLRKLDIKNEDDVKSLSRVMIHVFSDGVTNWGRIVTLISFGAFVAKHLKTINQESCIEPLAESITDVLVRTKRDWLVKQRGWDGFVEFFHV

In the case of `Cc1c2c(nn1C)COCc1cccnc1Cn1c(C(=O)O)c(CCCOc3cccc4ccccc34)c3cccc-2c31` (single isomer, unassigned; enantiomer 1) [Example 5, 4,5-Dimethyl-17-[3-(naphthalen-1-yloxy)propyl]-5,7,9,14-tetrahydropyrazolo[4′,3′:9,10]-pyrido[3′,2′:3,4][1,6]oxazacycloundecino[8,7,6-hi]indole-16-carboxylic Acid (Enantiomer 1)], the IC50 stood at 5.2e-06 M in data set [1], 1.3e-05 M in data set [2], 2.9e-09 M in data set [4] and 4.6e-06 M in data set [6]. Further, the EC50 in data set [3] is 5.4e-06 M; in data set [5] it was 1.4e-05 M.
Turning to `Cc1c2c(nn1C)COCc1cccnc1Cn1c(C(=O)O)c(CCCOc3cccc4ccccc34)c3cccc-2c31` (single isomer, unassigned; enantiomer 2) [Example 6, 4,5-Dimethyl-17-[3-(naphthalen-1-yloxy)propyl]-5,7,9,14-tetrahydropyrazolo[4′,3′:9,10]-pyrido[3′,2′:3,4][1,6]oxazacycloundecino[8,7,6-hi]indole-16-carboxylic Acid (Enantiomer 2)], the IC50 was 1.2e-05 M in data set [1], > 3.3e-05 M in data set [2], 1.1e-08 M in data set [4] and > 1.9e-05 M in data set [6]. For the same compound, the EC50 in data set [3] is > 2.2e-05 M; in data set [5], > 3.3e-05 M.
For the compound `Cc1c2c(nn1C)COCc1cccnc1Cn1c(C(=O)O)c(CCCOc3cccc4ccccc34)c3cccc-2c31` (racemic) [Example 4, (rac)-4,5-Dimethyl-17-[3-(naphthalen-1-yloxy)propyl]-5,7,9,14-tetrahydropyrazolo-[4′,3′:9,10]pyrido[3′,2′:3,4][1,6]oxazacycloundecino[8,7,6-hi]indole-16-carboxylic Acid], the IC50 was 1.4e-05 M in data set [1] (Homo sapiens, SU-DHL-5, 72 h); > 2.3e-05 M in data set [2] (Homo sapiens, SU-DHL10, 5 h); 5.3e-09 M in data set [4]; 1.2e-05 M in data set [6] (Homo sapiens, SU-DHL-5, 5 h). Further, the EC50 in data set [3] (Homo sapiens, SU-DHL-5, 3 h) was 1.5e-05 M; in data set [5] (Homo sapiens, SU-DHL10, 3 h), > 3.2e-05 M.
In the case of `Cc1c2c(nn1C)COCc1ncccc1Cn1c(C(=O)O)c(CCCOc3cccc4ccccc34)c3cccc-2c31` (single isomer, unassigned; enantiomer 2) [Example 9, 4,5-Dimethyl-17-[3-(naphthalen-1-yloxy)propyl]-5,7,9,14-tetrahydropyrazolo[4′,3′:9,10]-pyrido[2′,3′:3,4][1,6]oxazacycloundecino[8,7,6-hi]indole-16-carboxylic acid-N-ethylethanamine Salt (Enantiomer 2)], the IC50 is 2e-05 M in data set [1], > 3.3e-05 M in data set [2], 3.2e-08 M in data set [4] and > 3.3e-05 M in data set [6]. Further, the EC50 in data set [3] and in data set [5] was > 3.3e-05 M in each case.
On to `Cc1c2c(nn1C)COCc1ccccc1Cn1c(C(=O)O)c(CCCOc3cccc4ccccc34)c3cccc-2c31` (racemic) [Example 1, (rac)-4,5-Dimethyl-17-[3-(naphthalen-1-yloxy)propyl]-5,7,9,14-tetrahydroindolo[7,1-fg]pyrazolo[3,4-d][2,8]benzoxazacycloundecine-16-carboxylic Acid], for which the IC50 in data set [1] (Homo sapiens, SU-DHL-5, 72 h) is 9e-06 M; in data set [2] (Homo sapiens, SU-DHL10, 5 h), > 1.6e-05 M; in data set [4] it was 1.4e-08 M; in data set [6] (Homo sapiens, SU-DHL-5, 5 h) it was 1.1e-05 M. For the same compound, the EC50 is 1e-05 M in data set [3] (Homo sapiens, SU-DHL-5, 3 h) and > 3.3e-05 M in data set [5] (Homo sapiens, SU-DHL10, 3 h).
For the compound `Cc1c2c(nn1C)COCc1ncccc1Cn1c(C(=O)O)c(CCCOc3cccc4ccccc34)c3cccc-2c31` (racemic) [Example 7, (rac)-4,5-Dimethyl-17-[3-(naphthalen-1-yloxy)propyl]-5,7,9,14-tetrahydropyrazolo[4′,3′:9,10]-pyrido[2′,3′:3,4][1,6]oxazacycloundecino[8,7,6-hi]indole-16-carboxylic Acid], the IC50 in data set [1] (Homo sapiens, SU-DHL-5, 72 h) stood at 4.6e-06 M; in data set [2] (Homo sapiens, SU-DHL10, 5 h), 1.5e-05 M; in data set [6] (Homo sapiens, SU-DHL-5, 5 h) it was 3.6e-06 M. For the same compound, the EC50 worked out at 3e-06 M in data set [3] (Homo sapiens, SU-DHL-5, 3 h) and 1.6e-05 M in data set [5] (Homo sapiens, SU-DHL10, 3 h).
On to `Cc1c2c(nn1C)COCc1ccccc1Cn1c(C(=O)O)c(CCCOc3cccc4ccccc34)c3ccc(Cl)c-2c31` (single isomer, unassigned; enantiomer 2) [Example 38, (+)-3-Chloro-4,5-dimethyl-17-[3-(naphthalen-1-yloxy)propyl]-5,7,9,14-tetrahydroindolo[7,1-fg]pyrazolo[3,4-d][2,8]benzoxazacycloundecine-16-carboxylic Acid (Enantiomer 2)], for which the IC50 in data set [2] was 6.8e-06 M; in data set [4], 7.1e-09 M; in data set [6], 2.3e-06 M. The EC50 amounted to 1.7e-06 M in data set [3] and 1.1e-05 M in data set [5].
Consider `Cc1c2c(nn1C)CN(C(=O)NC1CCOCC1)Cc1ccccc1Cn1c(C(=O)O)c(CCCOc3cccc4ccccc34)c3cccc-2c31` (single isomer, unassigned; enantiomer 2) [Example 26, (−)-4,5-Dimethyl-17-[3-(naphthalen-1-yloxy)propyl]-8-(tetrahydro-2H-pyran-4-ylcarbamoyl)-7,8,9,14-tetrahydro-5H-indolo[1,7-bc]pyrazolo[4,3-e][2,8]benzodiazacycloundecine-16-carboxylic Acid (Enantiomer 2)], for which the IC50 was > 3.3e-05 M in data set [2], 3.8e-08 M in data set [4] and 1.6e-05 M in data set [6]. The EC50 in data set [3] was 1.8e-05 M; in data set [5] it was > 3.3e-05 M.
